This note sets out measurements from patent US12527782B2, “Use of hexokinase 2/mitochondria-detaching compounds for treating hexokinase-2 (HK2)-expressing cancers” (Vidac Pharma Ltd., priority 2016, dated 2026).

“Also recorded” adds a separate entry of the source.

For data set [1], the system named is Lung (NSCLC, adeno) LXFA 1041. Kind of data set: CFA, LXFA 1041. The settings on record: PDX/CFA. It is filed as cell-based, human. The procedure:
(§1) CFA was performed by Charles River Laboratories (Freiburg, Germany) in 96-well plate format according to a modified two-layer soft agar assay. The origin of the tumor xenografts has been described (Fiebig et al. 1989, incorporated herein by reference). The list of tumors used in this study is detailed in Table 1.

In data set [2] the test system is Colon CXF 280. The data set is described as follows: CFA, CXF 280. Particulars: PDX/CFA. The data set is classed as cell-based, human. As for the experimental part: as §1
The test system of data set [3] is Kidney RXF 423. Kind of data set: CFA, RXF 423. The data set is classed as cell-based, human. The settings on record: PDX/CFA. As for the experimental part:
as §1

The target of data set [4] is T1, HK1 (Homo sapiens, UniProt P19367).
T1 construct: host or cells: E. coli
Kind of data set: HK catalytic activity coupled enzymatic assay, HK1. It is filed as biochemical. Set-up: dose or concentration left out as unconfirmed. The settings on record: as a function of ATP or glucose; absence or presence of Formula C. As for the experimental part: (§2) A431 (human skin SCC), HT-297.T (human AK), and HaCaT transformed normal keratinocyte cell lines were from ATCC (Manassas, VA) and were maintained in DMEM supplemented with 10% FCS, 4 mM L-Gln, 1 mM sodium pyruvate, 100 U/mL penicillin, 1 μg/mL streptomycin. Human HK1 and HK2 plasmids were purchased from Addgene (Cambridge, MA) and were purified from E. Coli. VDAC1 was purified from sheep liver mitochondria as described (Arbel et al. 2012, incorporated herein by reference). Human skin tissue microarray (SK208 and SK 805) were purchased from US Biomax Inc. (Rockville, MD).
Hexokinase catalytic activity was determined by the coupled enzymatic assay in which hexokinase catalyzes the conversion of glucose to G6P, which is then oxidized by glucose-6-phosphate dehydrogenase (G6PDH) in the presence of NADP to form 6-Phospho-D-Gluconate and NADPH. NADPH production results in a colorimetric signal at 340 nm, which is proportional to the hexokinase catalytic activity. The readings were recorded in an ELISA plate reader Infinite 200 ELISA reader (Tecan, Männedorf, Switzerland).

Data set [5] deals with Leukemia (BCLL) LEXFCM JURL-MK1. The data set is described as follows: CFA, LEXFCM JURL-MK1. It is filed as cell-based, human. Particulars: Cell line/CFA. As for the experimental part:
as §1

For data set [6], the system named is Melanoma MEXF 535. Kind of data set: CFA, MEXF 535. It is filed as cell-based, human. The settings on record: PDX/CFA. The procedure:
as §1

For data set [7], the system named is Lung (NSCLC, adeno) LXFA 629. Kind of data set: CFA, LXFA 629. The data set is classed as cell-based, human. Particulars: PDX/CFA. The procedure:
as §1

The test system of data set [8] is Leukemia (BCLL) LEXFCM K-562. Kind of data set: CFA, LEXFCM K-562. The data set is classed as cell-based, human. Particulars: Cell line/CFA. The procedure:
as §1

The subject of data set [9] is A431 cells. The data set is described as follows: Cellular ATP determination (CellTiter-Glo) in A431 cells. The data set is classed as cell-based, human. The settings on record: 2-hour incubation. The procedure: Cellular ATP levels were determined using CellTiter-Glo® Luminescent Cell Viability Assay kit (Promega, Madison, WI) following 2 hours of treatment at 37° C.
(In general: Cellular ATP, detected with luciferase, serves as a proxy for viable cell number.)

Data set [10] in a line: Phase 1a single topical application, pharmacokinetics. It is filed as in vivo, human. The settings on record: healthy volunteers. The procedure:
The Phase 1a clinical trial was a randomized, double-blinded, placebo-controlled, dose-escalation study in healthy older-adult volunteers to evaluate the safety, tolerability, and pharmacokinetics of a single topical dermal application of Formula C ointment. The study was conducted under FDA IND in a Phase 1 unit in the United States.
Fifteen healthy volunteers, aged 35-70, were sequentially assigned to 1 of 3 consecutive treatment cohorts (5%, 10% or 20% Formula C ointment, respectively). Five subjects were randomized in a double-blind fashion in each dose cohort: 4 subjects received active Formula C ointment and 1 received matched placebo (0% Formula C; vehicle control). The study ointment (250 mg) was applied once to a 25 centimeter squared area of skin on the forehead of each volunteer.

Data set [11] relates to Colon CXF 243. Kind of data set: Colony forming assay (CFA), CXF 243. It is filed as cell-based, human. Particulars: PDX/CFA. The procedure: as §1
Data set [12] has as its system HT-297.T Actinic keratosis cells. The data set is described as follows: XTT cell viability assay, HT-297.T. The data set is classed as cell-based, human. The settings on record: Actinic keratosis HT-297.T; Cell line/XTT; 72 hr. The procedure:
as §2
(§3) For XTT assays, cells were plated in 96-well plates (5,000 cells per well) for 24 hours. Cells were then incubated with different concentrations of Formula C in triplicates for 72 hr in DMEM supplemented with 0.5% FCS and 5 mM Glucose. Cell viability was evaluated using 2,3-bis-(2-methoxy-4-nitro-5-sulfophenyl)-2H-tetrazolium-5-carboxanilide (XTT)-based colorimetric assay kit (Biological Industries Ltd., Kibbutz Beit-Haemek, Israel). The optical density was measured by an Infinite 200 ELISA reader at 450 nm and reference was measured at 630 nm (Tecan, Männedorf, Switzerland).
(In general: Tetrazolium dyes change colour on reduction, which living cells bring about.)

Data set [13] deals with Breast MAXF MDA-MB-231. The data set is described as follows: CFA, MAXF MDA-MB-231. The data set is classed as cell-based, human. Particulars: Cell line/CFA. The procedure:
as §1

Data set [14] deals with Cutanous T cell lymphoma Hut-78. The data set is described as follows: XTT cell viability assay, Hut-78. It is filed as cell-based, human. Particulars: Cell line/XTT. The procedure:
as §3

Data set [15] deals with Lung (NSCLC, adeno) LXFA 1012. Kind of data set: CFA, LXFA 1012. It is filed as cell-based, human. The settings on record: PDX/CFA. As for the experimental part: as §1
Data set [16] concerns Breast MAXF 574. Kind of data set: CFA, MAXF 574. The settings on record: PDX/CFA. It is filed as cell-based, human. As for the experimental part: as §1
In data set [17] the test system is Lung (NSCLC, epidermoid) LXFE 772. The data set is described as follows: CFA, LXFE 772. The data set is classed as cell-based, human. The settings on record: PDX/CFA. As for the experimental part: as §1
Data set [18] has as its system Stomach GXF 97. Kind of data set: CFA, GXF 97. It is filed as cell-based, human. The settings on record: PDX/CFA. As for the experimental part:
as §1

In data set [19] the test system is Lung (SCLC) LXFS 538. The data set is described as follows: CFA, LXFS 538. It is filed as cell-based, human. The settings on record: PDX/CFA. The procedure:
as §1

The subject of data set [20] is CTCL cell line MJ. The data set is described as follows: PrestoBlue cell viability, MJ. It is filed as cell-based, human. The settings on record: 72 hours, read-out: absolute IC50, cell viability. As for the experimental part:
Cutaneous T-cell lymphoma (CTCL) cell lines MJ and Hut78 were purchased from ATCC (CRL-8294, and TIB-161, respectively). Cells were grown in Iscove's Modified Dulbecco's Media supplemented with 2 mM L-glutamine, 10% fetal bovine serum, 100 U/mL of penicillin and 0.1 mg/mL of streptomycin.
Cells (1-2×10^4) were seeded in 96-well plates and treated with Formula C. Cell viability was determined 72 hours later using PrestoBlue reagent according to manufacturer's instruction (Life Technologies). The percentage of viability was expressed according to the fluorescence emitted by Formula C-treated cells compared to DMSO-treated control cells. The florescence emission values at 590 nm were measured with the plate-reader Spark 10M—multimode microplate reader (TECAN).

Data set [21] has as its system Leukemia (ALL) LEXFAL CCRF-CEM. The data set is described as follows: CFA, LEXFAL CCRF-CEM. The data set is classed as cell-based, human. The settings on record: Cell line/CFA. As for the experimental part: as §1
Data set [22] deals with Lymphoma (Non-Hodgkin) LYXF MY-LA. The data set is described as follows: CFA, LYXF MY-LA. It is filed as cell-based, human. Particulars: Cell line/CFA. As for the experimental part: as §1

T1 sequence (P19367 whole entry): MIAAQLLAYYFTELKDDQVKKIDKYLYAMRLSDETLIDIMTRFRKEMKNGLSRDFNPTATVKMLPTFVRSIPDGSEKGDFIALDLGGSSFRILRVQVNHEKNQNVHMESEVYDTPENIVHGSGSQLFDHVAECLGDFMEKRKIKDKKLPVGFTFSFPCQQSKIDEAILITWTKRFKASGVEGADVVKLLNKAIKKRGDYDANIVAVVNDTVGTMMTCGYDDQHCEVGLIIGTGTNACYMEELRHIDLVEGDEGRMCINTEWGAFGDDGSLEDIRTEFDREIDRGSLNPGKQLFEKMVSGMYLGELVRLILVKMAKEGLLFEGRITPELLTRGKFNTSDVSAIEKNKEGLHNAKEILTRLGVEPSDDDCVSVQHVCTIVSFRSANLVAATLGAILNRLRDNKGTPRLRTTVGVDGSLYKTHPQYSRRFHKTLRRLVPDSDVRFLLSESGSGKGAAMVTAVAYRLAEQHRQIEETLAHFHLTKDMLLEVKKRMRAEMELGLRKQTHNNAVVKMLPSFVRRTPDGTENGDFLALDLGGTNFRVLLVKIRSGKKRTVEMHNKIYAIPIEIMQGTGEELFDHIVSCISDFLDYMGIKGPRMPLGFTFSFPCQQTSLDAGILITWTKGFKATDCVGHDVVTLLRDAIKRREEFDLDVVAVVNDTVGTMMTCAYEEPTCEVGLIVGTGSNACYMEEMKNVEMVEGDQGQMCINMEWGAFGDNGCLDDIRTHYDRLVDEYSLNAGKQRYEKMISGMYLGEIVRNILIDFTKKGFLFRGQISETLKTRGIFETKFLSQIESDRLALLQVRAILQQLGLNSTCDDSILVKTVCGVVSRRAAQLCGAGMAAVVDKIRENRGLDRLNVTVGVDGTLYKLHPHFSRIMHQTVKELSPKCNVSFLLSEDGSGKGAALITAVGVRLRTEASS

Consider `CC/C=C\CC1C(=O)CCC1CC(=O)Oc1cccc2cccnc12` (stereo not shown) [Formula C], for which the IC50 in data set [1] came out at 1500 nM; in [2] it was 5440 nM; in data set [3] it was 1700 nM; in data set [5], 1670 nM; in [6] it was 538 nM; in [7], 1380 nM. Besides, the IC50 is 2340 nM in data set [8]; 1760 nM in data set [11]; 228 nM in data set [12]; 1700 nM in data set [13]; 1060 nM in [14]; 1360 nM in [15]. In addition, the IC50 was found to be 5410 nM in data set [16]; 3780 nM in data set [17]; 6450 nM in data set [18]; 163 nM in data set [19]; 1770 nM in data set [20]; 206 nM in [21]. In data set [22], this compound came in with a 50% inhibitory concentration (IC50) of 1000 nM. Besides, the HK1 catalytic activity entry in data set [4] is given as “does not affect; also recorded: did not affect the catalytic activity”. Besides, the “reduction of cellular ATP levels” value in data set [9] is on record as no more than 50%. Also, the “systemic exposure of VDA-1102 or its major metabolite” value in data set [10] is on record as “No systemic exposure”.

In general, IC50 refers to the concentration needed to halve the response being measured.
